Legend:
[1] = tested on: pooled cryopreserved hepatocytes; assay: Metabolic stability in hepatocytes (human); assay type: in vitro ADME; details: 1 μM test compound
Protocol: 4.6. Metabolic Stability in Hepatocytes
The aim of this assay is to determine the metabolic stability of the compound in hepatocytes (cryopreserved) of different species. Low hepatocyte stability may result in the formation of unwanted metabolites, high clearance, and therefore is not desirable.
The decrease in parent was assessed by measuring the percentage remaining by LC-MS/MS analysis.
A 10 mM stock solution of test compound in DMSO was first diluted in DMSO to 3 mM, and then in modified Krebs-Henseleit buffer (Sigma, K3753) to 5 μM. This compound dilution was added to a suspension of pooled cryopreserved hepatocytes (BioreclamationIVT) at 37° C. under gentle shaking.
Final reaction conditions were: 1 μM of test compound, 0.03% DMSO, 0.5 million viable hepatocytes/mL, and 75 μL incubation volume.
Testosterone (1 μM) and 7-hydroxycoumarin (1 μM) were used, respectively as phase I and phase II metabolic reaction controls.
After 0, 10, 20, 45, 90, 120 and 180 min of incubation, the reaction was terminated with 225 μL of MeCN:MeOH (2:1) containing 100 ng/mL of diclofenac as analytical internal standard. Samples were mixed, centrifuged and the supernatant analyzed by LC-MS/MS.
The instrument responses (ratios of test compound and internal standard peak areas) were referenced to the zero time point samples (considered as 100%) in order to determine the percentage of compound remaining.
Plots of percentage compound remaining are used to determine the intrinsic clearance in the hepatocyte incubations using the following equations:
Scaled Clint[L/h/kg]=Clint[μL/min/10^6 cells]*#(10^6) cells/g liver*60*(1/10^6) Scaled Clint unbound [L/h/kg]=Clint [L/h/kg]/Fu,inc where: fu,inc equals hepatocyte binding, derived from microsomal binding (fu,mic) by following equation: […]

[2] = target: T1, human IRAK-4 (Homo sapiens, UniProt Q9NWZ3); assay: Phosphorylation IC50 determination for human IRAK-4 (ADP-Glo kinase assay); details: human IRAK-4, RIP140 substrate, Km ATP; read-out: IRAK4 ADPglo biochemical assay IC50
T1 construct: purchased Carna Biosciences 09 145
T1 sequence (Q9NWZ3 1-460): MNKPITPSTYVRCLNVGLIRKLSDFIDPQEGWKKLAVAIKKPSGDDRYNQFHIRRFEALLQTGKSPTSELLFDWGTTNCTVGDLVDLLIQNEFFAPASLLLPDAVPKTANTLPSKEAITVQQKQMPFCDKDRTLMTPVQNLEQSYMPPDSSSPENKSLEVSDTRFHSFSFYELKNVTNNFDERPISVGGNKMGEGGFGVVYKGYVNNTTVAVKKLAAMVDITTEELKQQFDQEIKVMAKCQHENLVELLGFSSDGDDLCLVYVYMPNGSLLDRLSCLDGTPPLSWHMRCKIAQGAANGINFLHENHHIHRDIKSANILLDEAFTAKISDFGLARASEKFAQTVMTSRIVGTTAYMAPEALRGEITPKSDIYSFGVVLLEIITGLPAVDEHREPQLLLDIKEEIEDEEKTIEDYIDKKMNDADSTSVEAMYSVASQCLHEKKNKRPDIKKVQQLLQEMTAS
Protocol: 3.1. Phosphorylation IC50 Determination for Human IRAK-4
The phosphorylation of the substrate RIP140 (SEQ ID1) by IRAK4 at Km ATP was detected with the ADP-Glo Kinase Assay (Promega, Cat #V9103), a luminescent kinase assay which measures the ADP formed from a kinase reaction. (Zegzouti et al. 2009) In a second step the kinase reaction was terminated and all the remaining ATP was depleted. In a final step the ADP was converted into ATP and this newly synthesized ATP was measured by using a luciferase/luciferin reaction with a luminescent reader. The luminescent signal positively correlated with kinase activity, in particular kinase inhibition giving a decrease of the luminescent signal.
For the semi-automated assay, the positive control (100% inhibition) was prepared by diluting 10 mM staurosporine stock mixture (20 μL) in water (3.8 mL) and DMSO (180 μL), thus resulting in a […] staurosporine solution at 1% DMSO (final concentration after further dilution in the kinase reaction).
For the automated assay, no pre-dilution of the 10 mM staurosporine stock was made. 10 mM staurosporine was spotted directly in the assay plate using acoustic dispensing and complemented with DMSO to result in a similar final concentration as mentioned above.
For the semi-automated assay, the negative control (0% inhibition) was prepared by mixing water (3.8 mL) and DMSO (200 μL) resulting in a final concentration of 1% DMSO after further dilution in the kinase reaction. For the automated assay no pre-dilution of DMSO was done. 100% DMSO was spotted directly on the assay plate.
The assay buffer solution was prepared at a concentration corresponding to 5 fold the final (most diluted) assay concentration by mixing a solution of 125 mM TRIS pH 7.5+0.05% Triton X-100+2.5 mM EGTA (5.27 mL) with 1M mgCl2 (72 μL), 1M DTT (57.6 μL), and 200 mM MnCl2 (360 μL).
For example, for the semi-automated method, the enzyme-substrate mixture was prepared by mixing water (3999 μL), assay buffer solution (1380 μL), 1 mM RIP140 (138 μL—SEQ ID1), and 200 ng/mL IRAK 4 (3.45 μL Carna Biosciences, 09 145).
For semi-automated method, the ATP mixture was prepared at a concentration corresponding to 2.5 fold the final (most diluted) assay concentration of the semi-automated method and 1.5 fold the final (most diluted) assay concentration of the automated method. For example, for the semi-automated method, the ATP mixture was prepared by mixing water (4126 μL), assay buffer solution (1380 μL), and 10 mM ATP (13.80 μL).
The assay was performed either in a semi-automated or fully automated manner. The assay volume and the incubation time of the ADP detection were different accordingly the method used.
3.1.3.1. Semi-Automated Assay
The compounds were prepared as a serial dilution of 10 point dose responses with 1/5 dilution steps in 100% DMSO starting from 2 mM highest concentration, diluted 1/20 in water. 1 μL was transferred dry to the assay plates.
On each assay plate 32 wells of each control (positive & negative) were added, followed by 2 μL enzyme-substrate mixture.
The reaction was started by adding 2 μL diluted ATP (final concentration Km ATP) on the assay plates. Plates were centrifuged for a few seconds at 1000 rpm followed by an incubation at r.t. for 120 min.
The reactions were stopped and the unconsumed ATP was depleted by adding 5 μL ADP-glo Reagent (Promega, Cat #V9103) to the reaction. The plates were quickly centrifuged at 1000 rpm and incubated at r.t. for 40 min corresponding to full ATP depletion.
The ADP was converted back to ATP and luciferase and luciferin were introduced to detect ATP by adding 10 μL kinase detection reagent (Promega, Cat #V9103) to the reaction. The plates were centrifuged for a few seconds at 1000 rpm and incubated at r.t. for a further 30 min.
Luminescent read out was performed on an Envision luminescent reader (Perkin Elmer). […]

Human (Perc. remaining at 90 min) [1]	IC50 [2]	SMILES
75.55%	0.1 to 5 nM	COc1cc2nc(CCC(C)(C)O)cn2cc1NC(=O)c1cccc(C(C)(F)F)n1 [Compound 20, 6-(1,1-difluoroethyl)-N-[2-(3-hydroxy-3-methyl-butyl)-7-methoxy-imidazo[1,2-a]pyridin-6-yl]pyridine-2-carboxamide]
96.4%	0.1 to 5 nM	[2H]C([2H])([2H])NC(=O)c1cc2nc(CCC(C)(C)O)cn2cc1NC(=O)c1cccc(C(F)(F)F)n1 [Compound 1, 2-(3-hydroxy-3-methyl-butyl)-N-(trideuteriomethyl)-6-[[6-(trifluoromethyl)pyridine-2-carbonyl]amino]imidazo[1,2-a]pyridine-7-carboxamide]
100.7%	5 to 10 nM	COc1cc2nc(CCC(C)(C)O)cn2cc1NC(=O)c1cccn(C(F)F)c1=O [Compound 12, 1-(difluoromethyl)-N-[2-(3-hydroxy-3-methyl-butyl)-7-methoxy-imidazo[1,2-a]pyridin-6-yl]-2-oxo-pyridine-3-carboxamide]
30.3%	0.1 to 5 nM	COc1cc2nc(CCC(C)(C)O)cn2cc1NC(=O)c1cccc(C)n1 [Compound 6, N-[2-(3-hydroxy-3-methyl-butyl)-7-methoxy-imidazo[1,2-a]pyridin-6-yl]-6-methyl-pyridine-2-carboxamide]
95.3%	0.1 to 5 nM	COc1cc2nc(CCS(C)(=O)=O)cn2cc1NC(=O)c1cccn(C2CC2)c1=O [Compound 25, 1-cyclopropyl-N-[7-methoxy-2-(2-methylsulfonylethyl)imidazo[1,2-a]pyridin-6-yl]-2-oxo-pyridine-3-carboxamide]
93.95%	0.1 to 5 nM	COc1cc2nc(CCC(C)(C)O)cn2cc1NC(=O)c1cccn(C2CCC2)c1=O [Compound 18, 1-cyclobutyl-N-[2-(3-hydroxy-3-methyl-butyl)-7-methoxy-imidazo[1,2-a]pyridin-6-yl]-2-oxo-pyridine-3-carboxamide]
73.6%	0.1 to 5 nM	COc1cc2nc(CCS(C)(=O)=O)cn2cc1NC(=O)c1cccc(C(F)(F)F)n1 [Compound 24, N-[7-methoxy-2-(2-methylsulfonylethyl)imidazo[1,2-a]pyridin-6-yl]-6-(trifluoromethyl)pyridine-2-carboxamide]
78.4%	0.1 to 5 nM	COc1cccc(C(=O)Nc2cn3cc(CCC(C)(C)O)nc3cc2OC)n1 [Compound 8, N-[2-(3-hydroxy-3-methyl-butyl)-7-methoxy-imidazo[1,2-a]pyridin-6-yl]-6-methoxy-pyridine-2-carboxamide]
94.55%	0.1 to 5 nM	COc1cc2nc(CCC(C)(C)O)cn2cc1NC(=O)c1cccc(C(F)(F)F)n1 [Compound 3, N-[2-(3-hydroxy-3-methyl-butyl)-7-methoxy-imidazo[1,2-a]pyridin-6-yl]-6-(trifluoromethyl)pyridine-2-carboxamide]
99.7%	5 to 10 nM	COc1cc2nc(CCC(C)(C)O)cn2cc1NC(=O)c1cccn(C)c1=O [Compound 4, N-[2-(3-hydroxy-3-methyl-butyl)-7-methoxy-imidazo[1,2-a]pyridin-6-yl]-1-methyl-2-oxo-pyridine-3-carboxamide]
105.95%	> 50 nM	COc1cc2nc(CCC(C)(C)O)cn2cc1NC(=O)c1cccn(CC(F)(F)F)c1=O [Compound 13, N-[2-(3-hydroxy-3-methyl-butyl)-7-methoxy-imidazo[1,2-a]pyridin-6-yl]-2-oxo-1-(2,2,2-trifluoroethyl)pyridine-3-carboxamide]
94.9%	0.1 to 5 nM	CC(C)(O)CCc1cn2cc(NC(=O)c3cccc(C(F)(F)F)n3)c(C(N)=O)cc2n1 [Compound 31, 2-(3-hydroxy-3-methyl-butyl)-6-[[6-(trifluoromethyl)pyridine-2-carbonyl]amino]imidazo[1,2-a]pyridine-7-carboxamide]
–	5 to 10 nM	CCOc1c(NC(=O)c2cccn(C)c2=O)cn2cc(CCC(C)(C)O)nc2c1F [Compound 38, N-[7-ethoxy-8-fluoro-2-(3-hydroxy-3-methyl-butyl)imidazo[1,2-a]pyridin-6-yl]-1-methyl-2-oxo-pyridine-3-carboxamide]
64.9%	10 to 50 nM	COCCc1cn2cc(NC(=O)c3cccc(C(F)(F)F)n3)c(OC)cc2n1 [Compound 35, N-[7-methoxy-2-(2-methoxyethyl)imidazo[1,2-a]pyridin-6-yl]-6-(trifluoromethyl)pyridine-2-carboxamide]
91.45%	5 to 10 nM	CCn1cccc(C(=O)Nc2cn3cc(CCC(C)(C)O)nc3cc2OC)c1=O [Compound 23, 1-ethyl-N-[2-(3-hydroxy-3-methyl-butyl)-7-methoxy-imidazo[1,2-a]pyridin-6-yl]-2-oxo-pyridine-3-carboxamide]
–	5 to 10 nM	CCOc1c(NC(=O)c2cccn(C3CC3)c2=O)cn2cc(CCS(C)(=O)=O)nc2c1F [Compound 39, 1-cyclopropyl-N-[7-ethoxy-8-fluoro-2-(2-methylsulfonylethyl)imidazo[1,2-a]pyridin-6-yl]-2-oxo-pyridine-3-carboxamide]
95.6%	0.1 to 5 nM	COc1cc2nc(CCC(C)(C)O)cn2cc1NC(=O)c1cccn(C2CC2)c1=O [Compound 5, 1-cyclopropyl-N-[2-(3-hydroxy-3-methyl-butyl)-7-methoxy-imidazo[1,2-a]pyridin-6-yl]-2-oxo-pyridine-3-carboxamide]
